# Patent publication US20210121437A1, “[…] AGENTS […] FLAVONOID DERIVATIVES TARGETING KINASES, SIRTUINS AND ONCOGENIC AGENTS FOR THE TREATMENT OF MULTIPLE MYELOMA, LYMPHOMA, AND […]” (priority 2015, published 2021)
# pIC50: −log10 of the molar value.
# Experiments:
# [1] = system: 60 cancer cell line panel; settings: US National Cancer Institute 60 cancer cell line panel; cited from earlier work
# BIKE = target: T1, BIKE (Homo sapiens, UniProt Q9NSY1); assay: kinase competition binding assay; settings: Table 1
# T1 construct: full-length constructs were used for small, single domain kinases, and catalytic domain constructs for large multi-domain kinases; T7 phage fusion (most assays) or DNA tag for qPCR (HEK-293-made kinases); made in house
# Protocol: (§1) Cannabis flavonoids and their analogs were subjected to kinase inhibition assay. The compounds were first screened at a single concentration of 10 μM in the primary assay. […]. To determine the kd or IC50 values, competition binding assays were established, authenticated and executed as described previously. Fabian et al., “A Small Molecule-Kinase Interaction Map For Clinical Kinase Inhibitors.”, Nat Biotechnol, 23(3):329-36, Epub (2005). See also, Karaman et al., “A Quantitative Analysis Of Kinase Inhibitor Selectivity”, Nat. Biotechnol. […] For most assays, kinases were fused to T7 phage strains (Fabian, supra) and for the other assays, kinases were produced in HEK-293 cells after which they were tagged with DNA for quantitative PCR detection. In general, full-length constructs were used for small, single domain kinases, and catalytic domain constructs for large multi-domain kinases. The binding assays utilized streptavidin-coated magnetic beads treated with biotinylated small molecule ligands for 30 minutes at room temperature which generated affinity resins for the kinase assays. The liganded beads were blocked with excess biotin and washed with blocking buffer (SeaBlock (Pierce), 1% BSA, 0.05% Tween 20, 1 mM DTT) to remove unbound ligand and to reduce non-specific phage binding. […] Test compounds were prepared as 40× stocks in 100% DMSO and diluted directly into the assay (Final DMSO concentration=2.5%). All reactions were performed in polypropylene 384-well plates in a final volume of 0.04 ml. […] The beads were then re-suspended in elution buffer (1×PBS, 0.05% Tween 20, 0.5 μM non-biotinylated affinity ligand) and incubated at room temperature with shaking for 30 minutes. The kinase concentration in the eluates was measured by quantitative PCR. An illustration of the kinase interaction process is presented below. Kd/IC50 values were determined using a standard dose response curve using the hill equation. Curves were fitted using a non-linear least square fit with the Levenberg-Marquardt algorithm.
# DRAK2 = target: T2, DRAK2 (Homo sapiens, UniProt O94768); assay: kinase competition binding assay; settings: Table 1
# T2 construct: full-length constructs were used for small, single domain kinases, and catalytic domain constructs for large multi-domain kinases; T7 phage fusion (most assays) or DNA tag for qPCR (HEK-293-made kinases); made in house
# Protocol: as §1
# FLT3(D835V) = target: T3, FLT3(D835V) (Homo sapiens, UniProt P36888, D835V); assay: kinase competition binding assay; settings: Table 1
# T3 construct: full-length constructs were used for small, single domain kinases, and catalytic domain constructs for large multi-domain kinases; T7 phage fusion (most assays) or DNA tag for qPCR (HEK-293-made kinases); made in house
# Protocol: as §1
# JAK1 = target: T4, JAK1 (Homo sapiens, UniProt P23458); assay: kinase competition binding assay; settings: Table 1
# T4 construct: full-length constructs were used for small, single domain kinases, and catalytic domain constructs for large multi-domain kinases; T7 phage fusion (most assays) or DNA tag for qPCR (HEK-293-made kinases); made in house
# Protocol: as §1
# JAK2 = target: T5, JAK2 (Homo sapiens, UniProt O60674); assay: kinase competition binding assay; settings: Table 1
# T5 construct: full-length constructs were used for small, single domain kinases, and catalytic domain constructs for large multi-domain kinases; T7 phage fusion (most assays) or DNA tag for qPCR (HEK-293-made kinases); made in house
# Protocol: as §1
# JAK3 = target: T6, JAK3 (Homo sapiens, UniProt P52333); assay: kinase competition binding assay; settings: Table 1
# T6 construct: full-length constructs were used for small, single domain kinases, and catalytic domain constructs for large multi-domain kinases; T7 phage fusion (most assays) or DNA tag for qPCR (HEK-293-made kinases); made in house
# Protocol: as §1
# MEK5 = target: T7, MEK5 (Homo sapiens, UniProt Q13163); assay: kinase competition binding assay; settings: Table 1
# T7 construct: T7 phage fusion (most assays) or DNA tag for qPCR (HEK-293-made kinases); made in house
# Protocol: as §1
# MELK = target: T8, MELK (Homo sapiens, UniProt Q14680); assay: kinase competition binding assay; settings: Table 1
# T8 construct: full-length constructs were used for small, single domain kinases, and catalytic domain constructs for large multi-domain kinases; T7 phage fusion (most assays) or DNA tag for qPCR (HEK-293-made kinases); made in house
# Protocol: as §1
# MNK2 = target: T9, MNK2 (Homo sapiens, UniProt Q9HBH9); assay: kinase competition binding assay; settings: Table 1
# T9 construct: T7 phage fusion (most assays) or DNA tag for qPCR (HEK-293-made kinases); made in house
# Protocol: as §1
# PDGFRa = target: T10, PDGFRa (Homo sapiens, UniProt P16234); assay: kinase competition binding assay; settings: Table 1
# T10 construct: catalytic domain constructs for large multi-domain kinases; T7 phage fusion (most assays) or DNA tag for qPCR (HEK-293-made kinases); made in house
# Protocol: as §1
# PDGFRa(T6741) = target: T11, PDGFRa(T6741) (Homo sapiens, UniProt P16234, T674I); assay: kinase competition binding assay; settings: Table 1
# T11 construct: catalytic domain constructs for large multi-domain kinases; T7 phage fusion (most assays) or DNA tag for qPCR (HEK-293-made kinases); made in house
# Protocol: as §1
# PIK3CA(1800L) = target: T12, PIK3CA(1800L) (Homo sapiens, UniProt P42336, I800L); assay: kinase competition binding assay; settings: Table 1
# T12 construct: T7 phage fusion (most assays) or DNA tag for qPCR (HEK-293-made kinases); made in house
# Protocol: as §1
# PIK4CB = target: T13, PIK4CB (Homo sapiens, UniProt Q9UBF8); assay: kinase competition binding assay; settings: Table 1
# T13 construct: T7 phage fusion (most assays) or DNA tag for qPCR (HEK-293-made kinases); made in house
# Protocol: as §1
# PIP5K1A = target: T14, PIP5K1A (Homo sapiens, UniProt Q99755); assay: kinase competition binding assay; settings: Table 1
# T14 construct: T7 phage fusion (most assays) or DNA tag for qPCR (HEK-293-made kinases); made in house
# Protocol: as §1
# SRC = target: T15, SRC (Homo sapiens, UniProt P12931); assay: kinase competition binding assay; settings: Table 1
# T15 construct: T7 phage fusion (most assays) or DNA tag for qPCR (HEK-293-made kinases); made in house
# Protocol: as §1
# TXK = target: T16, TXK (Homo sapiens, UniProt P42681); assay: kinase competition binding assay; settings: Table 1
# T16 construct: T7 phage fusion (most assays) or DNA tag for qPCR (HEK-293-made kinases); made in house
# Protocol: as §1
# Yes/yes1 = target: T17, Yes/yes1 (Homo sapiens, UniProt P07947); assay: kinase competition binding assay; settings: Table 1
# T17 construct: T7 phage fusion (most assays) or DNA tag for qPCR (HEK-293-made kinases); made in house
# Protocol: as §1
# c-SRC = target: T18, c-SRC (Homo sapiens, UniProt P12931); assay: kinase competition binding assay; settings: Table 1
# T18 construct: T7 phage fusion (most assays) or DNA tag for qPCR (HEK-293-made kinases); made in house
# Protocol: as §1
# FLT3(ITD) = target: T19, FLT3(ITD) (Homo sapiens, UniProt P36888); format: binding; settings: Table 1
# T19 construct: In general, full-length constructs were used for small, single domain kinases, and catalytic domain constructs for large multi-domain kinases; fused on or other part: T7 phage fusion or DNA tag for qPCR detection
# Protocol: Cannabis flavonoids and their analogs were subjected to kinase inhibition assay. The compounds were first screened at a single concentration of 10 μM in the primary assay. […] To determine the kd or IC50 values, competition binding assays were established, authenticated and executed as described previously. […] See also, Karaman et al., “A Quantitative Analysis Of Kinase Inhibitor Selectivity”, Nat. Biotechnol. […] For most assays, kinases were fused to T7 phage strains (Fabian, supra) and for the other assays, kinases were produced in HEK-293 cells after which they were tagged with DNA for quantitative PCR detection. In general, full-length constructs were used for small, single domain kinases, and catalytic domain constructs for large multi-domain kinases. […] The liganded beads were blocked with excess biotin and washed with blocking buffer (SeaBlock (Pierce), 1% BSA, 0.05% Tween 20, 1 mM DTT) to remove unbound ligand and to reduce non-specific phage binding. […] All reactions were performed in polypropylene 384-well plates in a final volume of 0.04 ml. […] The kinase concentration in the eluates was measured by quantitative PCR. An illustration of the kinase interaction process is presented below. Kd/IC50 values were determined using a standard dose response curve using the hill equation. Curves were fitted using a non-linear least square fit with the Levenberg-Marquardt algorithm.
# [2] = system: KMS-11 (Multiple myeloma); assay: anticancer cell proliferation assay (WST-1); format: cell-based; settings: 72 hours
# Protocol: (§2) Bioactivity of the above-described compounds has been verified by an anticancer cell proliferation assay using the WST-1 (4-[3-(4-iodophenyl)-2-(4-nitrophenyl)-2H-5-tetrazoliol-1, 3-benzene disulfonate) colorimetric assay by Roche Life Sciences®. Anticancer activity was tested against several standard cancer cell lines including brain, breast, Kaposi sarcoma, leukemia, lung, melanoma, tenosynovial giant cell tumor, ovarian, pancreatic, colon and prostate cancer. Cells were trypsinized and plated into 96 well plates in 50 μl of media and incubated overnight. The next day approximately 18 hours after plating, 50 μl of media containing the required flavonoid-based pharmaceutical composition was added per well. Cells were plated at a density so that 72 hours post drug addition, the cells will be in log phase (500-2000 cells/well). The compounds and extracts were solubilized in Dimethyl sulfoxide (DMSO). The cells are allowed to proliferate for 72 hours 37° C. in humidified atmosphere of 5% CO2. The experiment is terminated using WST-1 (Roche®) 10 μl per well and absorbance is read at 450 nm/690 nm. The effect of drugs on growth is assessed as percent of cell viability. The IC50 values were determined from the extract dose versus control growth curves using Graphpad Prism® software. All experiments were carried out in duplicate and the mean results determined.
# MM.1S (Multiple Myeloma) = assay: anticancer cell proliferation assay (WST-1); format: cell-based; settings: 72 hours
# Protocol: as §2
# MV4-11 (Leukemia) = assay: anticancer cell proliferation assay (WST-1); format: cell-based; settings: Table 3; 72 hours, WST-1; read-out: IC50 MV4-11 (Leukemia)
# Protocol: as §2, with “Anticancer” for “Bioactivity of the above-described compounds has been verified by an anticancer cell proliferation assay using the WST-1 (4-[3-(4-iodophenyl)-2-(4-nitrophenyl)-2H-5-tetrazoliol-1, 3-benzene disulfonate) colorimetric assay by Roche Life Sciences®. Anticancer”
# [3] = system: human pancreatic cancer xenograft CFPAC-1 cells; assay: human pancreatic cancer xenograft CFPAC-1 in scid mice; format: in vivo; settings: CFPAC-1 xenograft
# From the text: The results of the anticancer activity are presented in Tables 3 and 4 (above) and in FIG. 6, Hela cells shown at (A) and CMK cells at (B) and MV4-11 and MOLT-14 acute myeloid leukemia cells.
# T7 sequence (Q13163 whole entry, the tested form may be a part): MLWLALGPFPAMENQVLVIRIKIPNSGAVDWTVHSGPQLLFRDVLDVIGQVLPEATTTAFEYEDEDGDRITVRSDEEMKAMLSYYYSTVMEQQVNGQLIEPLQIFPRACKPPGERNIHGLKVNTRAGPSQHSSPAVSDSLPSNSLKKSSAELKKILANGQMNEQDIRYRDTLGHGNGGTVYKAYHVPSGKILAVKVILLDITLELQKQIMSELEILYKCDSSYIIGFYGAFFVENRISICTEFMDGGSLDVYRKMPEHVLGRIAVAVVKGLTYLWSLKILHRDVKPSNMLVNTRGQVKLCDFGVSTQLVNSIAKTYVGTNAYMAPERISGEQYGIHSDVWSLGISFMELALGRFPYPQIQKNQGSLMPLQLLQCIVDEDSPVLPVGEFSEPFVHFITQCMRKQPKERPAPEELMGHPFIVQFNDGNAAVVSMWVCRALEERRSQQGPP
# T5 sequence (O60674 whole entry, the tested form may be a part): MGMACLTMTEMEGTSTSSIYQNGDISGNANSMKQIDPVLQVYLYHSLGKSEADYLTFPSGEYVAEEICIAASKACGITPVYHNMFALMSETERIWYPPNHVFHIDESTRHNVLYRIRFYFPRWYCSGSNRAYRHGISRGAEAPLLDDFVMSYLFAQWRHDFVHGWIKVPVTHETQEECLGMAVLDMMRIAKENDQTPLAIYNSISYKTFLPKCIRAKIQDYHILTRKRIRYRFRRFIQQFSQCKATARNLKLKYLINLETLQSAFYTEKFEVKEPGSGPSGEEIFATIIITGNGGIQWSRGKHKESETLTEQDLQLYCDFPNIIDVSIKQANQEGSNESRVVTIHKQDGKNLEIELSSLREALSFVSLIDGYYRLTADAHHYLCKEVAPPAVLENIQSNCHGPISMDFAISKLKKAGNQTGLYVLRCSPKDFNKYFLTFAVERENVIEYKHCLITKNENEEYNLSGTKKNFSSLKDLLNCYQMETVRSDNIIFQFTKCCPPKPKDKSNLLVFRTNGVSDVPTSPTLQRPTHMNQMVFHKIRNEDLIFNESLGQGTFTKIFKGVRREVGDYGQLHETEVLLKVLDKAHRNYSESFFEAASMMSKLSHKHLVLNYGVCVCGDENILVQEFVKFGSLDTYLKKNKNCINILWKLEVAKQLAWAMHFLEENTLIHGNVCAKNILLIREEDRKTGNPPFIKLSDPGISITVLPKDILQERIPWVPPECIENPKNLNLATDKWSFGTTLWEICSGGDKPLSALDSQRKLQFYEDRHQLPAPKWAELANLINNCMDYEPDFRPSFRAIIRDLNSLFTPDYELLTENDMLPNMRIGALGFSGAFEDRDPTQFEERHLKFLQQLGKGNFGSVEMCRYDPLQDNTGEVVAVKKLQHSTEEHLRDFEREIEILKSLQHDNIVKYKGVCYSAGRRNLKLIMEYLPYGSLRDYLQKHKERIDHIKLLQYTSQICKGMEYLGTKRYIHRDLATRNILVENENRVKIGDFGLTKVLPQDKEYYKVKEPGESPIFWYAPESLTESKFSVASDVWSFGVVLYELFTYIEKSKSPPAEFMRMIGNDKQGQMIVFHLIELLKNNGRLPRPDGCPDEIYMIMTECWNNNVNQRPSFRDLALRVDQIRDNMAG
# T17 sequence (P07947 whole entry, the tested form may be a part): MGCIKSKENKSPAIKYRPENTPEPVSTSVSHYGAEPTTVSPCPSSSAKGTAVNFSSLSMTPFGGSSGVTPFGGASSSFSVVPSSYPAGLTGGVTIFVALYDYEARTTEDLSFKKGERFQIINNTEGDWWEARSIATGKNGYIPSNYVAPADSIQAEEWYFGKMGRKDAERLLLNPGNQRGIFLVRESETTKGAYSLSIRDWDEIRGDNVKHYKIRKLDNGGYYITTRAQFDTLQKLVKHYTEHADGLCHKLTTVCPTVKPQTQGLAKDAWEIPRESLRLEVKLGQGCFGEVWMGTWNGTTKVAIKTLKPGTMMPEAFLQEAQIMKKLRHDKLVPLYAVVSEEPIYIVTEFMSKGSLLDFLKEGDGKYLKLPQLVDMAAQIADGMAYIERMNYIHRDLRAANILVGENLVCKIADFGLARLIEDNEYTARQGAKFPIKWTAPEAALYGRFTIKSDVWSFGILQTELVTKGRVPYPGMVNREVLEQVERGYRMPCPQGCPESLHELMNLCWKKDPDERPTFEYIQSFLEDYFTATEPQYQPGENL
# T2 sequence (O94768 whole entry, the tested form may be a part): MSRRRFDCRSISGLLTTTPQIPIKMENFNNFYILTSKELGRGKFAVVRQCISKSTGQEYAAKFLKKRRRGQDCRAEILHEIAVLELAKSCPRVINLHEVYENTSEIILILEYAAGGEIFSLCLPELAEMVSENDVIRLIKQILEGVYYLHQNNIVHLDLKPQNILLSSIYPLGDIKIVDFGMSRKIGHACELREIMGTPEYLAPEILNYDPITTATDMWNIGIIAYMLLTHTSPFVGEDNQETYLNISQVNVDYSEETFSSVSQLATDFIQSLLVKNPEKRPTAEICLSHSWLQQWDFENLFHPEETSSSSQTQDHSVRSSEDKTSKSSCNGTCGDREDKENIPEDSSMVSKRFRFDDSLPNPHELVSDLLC
# T11 sequence (P16234 593-954 T674I limits assumed): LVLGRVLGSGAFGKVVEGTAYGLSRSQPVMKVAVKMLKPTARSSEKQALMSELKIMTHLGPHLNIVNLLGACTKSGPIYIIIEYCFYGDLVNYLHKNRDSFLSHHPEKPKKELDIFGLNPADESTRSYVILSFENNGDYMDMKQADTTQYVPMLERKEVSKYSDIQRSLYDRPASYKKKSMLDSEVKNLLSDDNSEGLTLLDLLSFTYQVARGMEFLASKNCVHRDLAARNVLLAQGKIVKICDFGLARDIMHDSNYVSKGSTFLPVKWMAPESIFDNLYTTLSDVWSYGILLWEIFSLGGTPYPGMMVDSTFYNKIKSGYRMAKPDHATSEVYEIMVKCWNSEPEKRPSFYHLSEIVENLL
# T14 sequence (Q99755 whole entry, the tested form may be a part): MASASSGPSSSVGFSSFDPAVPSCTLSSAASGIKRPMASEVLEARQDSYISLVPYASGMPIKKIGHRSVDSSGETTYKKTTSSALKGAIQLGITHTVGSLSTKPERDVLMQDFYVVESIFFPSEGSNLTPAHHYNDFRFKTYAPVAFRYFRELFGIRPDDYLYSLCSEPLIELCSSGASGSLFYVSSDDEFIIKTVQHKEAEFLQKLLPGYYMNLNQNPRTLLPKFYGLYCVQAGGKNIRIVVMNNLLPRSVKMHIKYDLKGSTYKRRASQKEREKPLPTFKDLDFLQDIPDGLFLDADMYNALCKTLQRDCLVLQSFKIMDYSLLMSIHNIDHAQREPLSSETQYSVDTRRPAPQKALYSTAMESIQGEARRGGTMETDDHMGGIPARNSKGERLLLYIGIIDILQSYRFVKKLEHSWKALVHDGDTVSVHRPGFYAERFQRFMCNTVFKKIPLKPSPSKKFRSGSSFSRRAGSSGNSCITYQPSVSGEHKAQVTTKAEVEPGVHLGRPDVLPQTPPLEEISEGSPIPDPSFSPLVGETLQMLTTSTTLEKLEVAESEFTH
# T18 sequence (P12931 whole entry, the tested form may be a part): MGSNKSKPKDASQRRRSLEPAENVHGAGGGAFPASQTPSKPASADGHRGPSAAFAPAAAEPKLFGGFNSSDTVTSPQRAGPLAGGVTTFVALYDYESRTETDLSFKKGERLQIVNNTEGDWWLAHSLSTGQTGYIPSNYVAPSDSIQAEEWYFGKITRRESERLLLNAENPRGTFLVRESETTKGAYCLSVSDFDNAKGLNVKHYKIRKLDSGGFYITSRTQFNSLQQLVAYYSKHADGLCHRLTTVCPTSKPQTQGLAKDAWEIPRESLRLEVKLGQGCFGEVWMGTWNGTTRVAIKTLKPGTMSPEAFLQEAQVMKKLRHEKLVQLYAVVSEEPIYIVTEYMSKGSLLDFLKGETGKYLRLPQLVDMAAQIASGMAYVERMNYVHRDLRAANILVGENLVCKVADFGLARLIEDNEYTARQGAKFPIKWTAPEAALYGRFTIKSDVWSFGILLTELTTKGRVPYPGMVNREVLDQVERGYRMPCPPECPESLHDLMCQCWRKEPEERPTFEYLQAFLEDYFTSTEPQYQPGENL
# T15 sequence (P12931 whole entry, the tested form may be a part): as above
# T9 sequence (Q9HBH9 whole entry, the tested form may be a part): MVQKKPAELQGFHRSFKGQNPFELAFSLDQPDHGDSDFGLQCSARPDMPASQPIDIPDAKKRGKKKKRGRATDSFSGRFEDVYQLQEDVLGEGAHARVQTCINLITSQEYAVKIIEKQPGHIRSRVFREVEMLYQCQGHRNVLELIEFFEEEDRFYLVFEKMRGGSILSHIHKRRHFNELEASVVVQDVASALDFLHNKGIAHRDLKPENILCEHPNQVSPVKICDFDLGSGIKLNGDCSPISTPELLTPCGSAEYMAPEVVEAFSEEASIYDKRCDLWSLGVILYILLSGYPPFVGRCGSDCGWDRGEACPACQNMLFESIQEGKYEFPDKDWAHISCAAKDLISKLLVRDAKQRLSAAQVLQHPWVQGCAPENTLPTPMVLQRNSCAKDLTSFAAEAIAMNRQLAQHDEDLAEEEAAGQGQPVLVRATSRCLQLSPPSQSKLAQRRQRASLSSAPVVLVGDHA
# T10 sequence (P16234 593-954 limits assumed): as the sequence (P16234 593-954 T674I limits assumed) above, with I82T counted along it
smiles,measurement,setting,value
COc1cc(-c2cc(=O)c3c(O)c(CC=C(C)C)c(O)cc3o2)ccc1O [cannflavin B],cytotoxicity against cancer cells,[1],not cytotoxic
"COc1cc(-c2cc(=O)c3c(O)cc(O)c(CC=C(C)C)c3o2)ccc1O [FBL-03G, Caflanone]",pIC50,BIKE,7.09
same,pIC50,DRAK2,5.85
same,pIC50,FLT3(D835V),7.90
same,pIC50,JAK1,6.19
same,pIC50,JAK2,5.73
same,pIC50,JAK3,8.25
same,pIC50,MEK5,6.72
same,pIC50,MELK,7.05
same,pIC50,MNK2,6.26
same,pIC50,PDGFRa,6.16
same,pIC50,PDGFRa(T6741),5.78
same,pIC50,PIK3CA(1800L),6.90
same,pIC50,PIK4CB,6.87
same,pIC50,PIP5K1A,6.49
same,pIC50,SRC,5.77
same,pIC50,TXK,6.79
same,pIC50,Yes/yes1,6.53
same,pIC50,c-SRC,5.96
same,pIC50,FLT3(ITD),7.42
same,pIC50,[2],7.19
same,pIC50,MM.1S (Multiple Myeloma),6.02
same,pIC50,MV4-11 (Leukemia),7.41
same,inhibition of tumor compared to the control,[3],significant inhibition of tumor
COc1cc(-c2cc(=O)c3c(O)c(CC=C(C)C)c(O)cc3o2)ccc1O [FBL-03B],inhibition of tumor compared to the control,[3],significant inhibition of tumor
